# Results published in patent publication US20090318470A1, “1-SUBSTITUTED-3-(NAPHTHALEN-1-YLSULFONYL)-5-(PIPERAZIN-1-YL)-1H-INDAZOLE COMPOUNDS AS 5-HYDROXYTRYPTAMINE-6 LIGANDS” (Wyeth, priority 2008, published 2009).
# Counter-ions that a name gives are not always drawn. Like-named read-outs stand apart in the source and are kept apart here.
# Tests used:
# [1] = Pharmacokinetics following a single IV bolus; design: species or system Male Long Evans Rats; conditions: male, Long Evans, rat, in vivo; single IV bolus at 2 mg/kg, n = 3
# Method: (§1) Pharmacokinetics and CNS Penetration of Compounds were Determined Using HPLC Analysis of the Prepared Samples and Presented in Tables 2, 3, & 4 Below
# (§2) Male Long Evans Rats were dosed with the candidate drug substance at the dosage amount and route listed above using standard pharmacokinetic procedures (Applied Biopharmaceutics & Pharmacokinetics, Shargel, L and Yu, A, 4th Ed 1999, McGraw-Hill, N.Y.; Welling, P G, Pharmacokinetics, Process and Mathematics, ACS Monograph 185, American Chemical Society 1986, Washington, D.C.; Lee, P and Amidon, G L, Pharmacokinetic Analysis-A Practical Approach, Technomic Pub Co Lancaster Pa. 1996)).
# [2] = target: T1, serotonin 5HT6 receptor subtype (Homo sapiens, UniProt P50406); assay: 5HT6 Binding Affinity ([3H]-LSD SPA binding)
# T1 construct: host or cells: CHO-Dukx-A2 cells, clone 50-7
# Method: Binding experiments are performed in a total volume of 200 μl using a 96 well microtiter plate format (Packard Optiplate). […] Assay buffer and 10 μM cold methiothepin are substituted for the test compound in separate wells to define ‘total’ and ‘nonspecific’ binding, respectively. The incubation period is initiated by the addition of 50 μl of 10 mg/ml PVT WGA SPA beads (RPNQ0060, Amersham GE Healthcare) mixed in assay buffer for a final concentration of 1 mg/well. The plates are sealed and gently shaken at room temperature using an orbital shaker (setting 1.5) until equilibrium is achieved (2-6 hours). Radioactivity (CPM) is measured by Packard TopCount (1 minutes counting time/well).
# Specific binding is described as the total radioactivity bound less the amount bound in the presence of 10 μM methiothepin, referred to as nonspecific binding (NSB). Binding in the presence of varying concentrations of test compounds is expressed as percent of specific binding in the absence of compound:
# {(Bound−NSB)/(Total−NSB)}×100=% Total
# Regression analysis of % bound data from ten concentrations is performed in GraphPad Prism, XL Fit or equivalent software. IC50 values are calculated using a four-parameter logistic curve fitting model and Ki values are calculated by the Cheng-Prusoff equation below:
# where L is the nM concentration of the radioactive ligand used and the Kd is the dissociation constant of the ligand for the receptor.
# [3] = Pharmacokinetics following a single oral dose; design: species or system Male Long Evans Rats; conditions: male, Long Evans, rat, in vivo; for bioavailability: po, 10 mg/kg, Table 1, obtained according to Example 10; for AUC(0-inf): single oral dose of 10 mg/kg
# Method: as §1, §2
# [4] = CNS penetration following a single intraperitoneal dose; assay type: in vivo, Male Long Evans Rats; conditions: for Kp: male, Long Evans, rat, brain and plasma, read-out: Brain/plasma ratio
# [5] = Microsomal stability, human; assay type: in vitro ADME; conditions: Human microsomes
# Method: (§3) Compounds listed in Table 5, column A, are prepared as described in U.S. Pat. No. 7,238,696. Each of the compounds in Table 5, columns A and B, were screen according to the microsomal stability procedure described in Di et al., Journal of Biomolecular Screening 2003:453-462.
# [6] = Microsomal stability, rat; assay type: in vitro ADME; conditions: Rat microsomes
# Method: as §3
# [7] = intraperitoneal, 10 mg/mL, Table 1, obtained according to Example 10
# [8] = ip, Table 4, single intraperitoneal dose of 10 mg/kg, n = 3
# [9] = CHO-Dukx-A2 cells expressing 5HT6, 3 nM [3H]-LSD, Cheng-Prusoff, read-out: 5HT6 Ki
# T1 sequence (P50406 whole entry): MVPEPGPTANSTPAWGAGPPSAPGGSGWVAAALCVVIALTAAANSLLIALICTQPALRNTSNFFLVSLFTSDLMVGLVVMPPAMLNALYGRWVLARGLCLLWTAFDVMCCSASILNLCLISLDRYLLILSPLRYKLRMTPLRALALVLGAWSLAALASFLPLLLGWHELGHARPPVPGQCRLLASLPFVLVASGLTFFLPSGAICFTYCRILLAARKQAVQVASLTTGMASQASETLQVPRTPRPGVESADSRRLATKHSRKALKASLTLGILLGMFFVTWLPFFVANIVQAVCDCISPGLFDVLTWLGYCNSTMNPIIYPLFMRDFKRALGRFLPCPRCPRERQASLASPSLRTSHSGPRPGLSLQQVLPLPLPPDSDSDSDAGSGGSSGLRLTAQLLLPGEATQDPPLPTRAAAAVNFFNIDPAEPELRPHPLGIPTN
Compound,AUC(0-inf) [1],Ki [2],bioavailability [3],AUC(0-inf) [3],"Kp [4, 7]","Kp [4, 8]","AUClast ([4]; matrix brain, single intraperitoneal dose of 10 mg/kg, n = 3)","Ki [2, 9]",Microsomal Stability [5],Microsomal Stability [6]
"O=S(=O)(c1cccc2ccccc12)c1n[nH]c2ccc(N3CCNCC3)cc12 [Compound C, 3-(naphthalen-1-ylsulfonyl)-5-(piperazin-1-yl)-1H-indazole dihydrochloride, reference compound]",390 ng·h/mL,0.8 nM,3%,119 ng·h/mL,< 0.01,< 0.01,Not detectable,,,
"CC(C)Cn1nc(S(=O)(=O)c2cccc3ccccc23)c2cc(N3CCNCC3)ccc21 [Example 1, 1-Isobutyl-3-(naphthalen-1-ylsulfonyl)-5-(piperazin-1-yl)-1H-indazole dihydrochloride]",378 ng·h/mL,,22%,413 ng·h/mL,0.81,0.81,,4.6 nM,>30 min,24 min
"O=S(=O)(c1cccc2ccccc12)c1nn(Cc2ccccc2)c2ccc(N3CCNCC3)cc12 [Example 2, 1-Benzyl-3-(naphthalene-1-sulfonyl)-5-piperazin-1-yl-1H-indazole dihydrochloride]",843 ng·h/mL,,50%,2100 ng·h/mL,0.26,0.26,,7.5 nM,13 min,25 min
"O=S(=O)(c1cccc2ccccc12)c1nn(Cc2cccc(Cl)c2)c2ccc(N3CCNCC3)cc12 [Example 3, 1-(3-Chlorobenzyl)-5-(piperazin-1-yl)-3-(naphthalen-1-ylsulfonyl)-1H-indazole dihydrochloride]",,,,,,,,23.5 nM,,
"CC(=O)n1nc(S(=O)(=O)c2cccc3ccccc23)c2cc(N3CCNCC3)ccc21 [Example 4, 1-(3-(Naphthalen-1-ylsulfonyl)-5-(piperazin-1-yl)-1H-indazol-1-yl)ethanone hydrochloride]",,,,,,,,1 nM,,
"Cn1nc(S(=O)(=O)c2cccc3ccccc23)c2cc(N3CCNCC3)ccc21 [Example 5, 1-Methyl-3-(naphthalen-1-ylsulfonyl)-5-(piperazin-1-yl)-1H-indazole dihydrochloride]",,,,,0.3,,,1.6 nM,,
"CCn1nc(S(=O)(=O)c2cccc3ccccc23)c2cc(N3CCNCC3)ccc21 [Example 6, 1-Ethyl-3-(naphthalen-1-ylsulfonyl)-5-(piperazin-1-yl)-1H-indazole dihydrochloride]",,,,,0.45,,,1.9 nM,,
"CCCn1nc(S(=O)(=O)c2cccc3ccccc23)c2cc(N3CCNCC3)ccc21 [Example 7, 3-(Naphthalen-1-ylsulfonyl)-5-(piperazin-1-yl)-1-propyl-1H-indazole dihydrochloride]",,,,,,,,2.2 nM,,
"CC(C)n1nc(S(=O)(=O)c2cccc3ccccc23)c2cc(N3CCNCC3)ccc21 [Example 8, 1-Isopropyl-3-(naphthalen-1-ylsulfonyl)-5-(piperazin-1-yl)-1H-indazole dihydrochloride]",,,,,0.36,,,3 nM,>30 min,>30 min
